Results as given in paper PMC3445516 (PLoS ONE, 2012).

Experiments:
Assay in all cases: Ambit kinase profiling, competition binding
CSF1R = target: T1, CSF1R (Homo sapiens, UniProt P07333); conditions: compound concentration 10 uM, read-out: Percent Competition
T1 construct: purchased Ambit Biosciences (KINOMEscan)
From the text: (§1) Supplement pone.0044653.s004.xls, sheet "Compound 122" | column: Percent Competition

MST2 = target: T2, MST2 (Homo sapiens, UniProt Q13188); conditions: compound concentration 10 uM, read-out: Percent Competition
T2 construct: purchased Ambit Biosciences (KINOMEscan)
From the text: as §1

AXL = target: T3, AXL (Homo sapiens, UniProt P30530); conditions: compound concentration 10 uM, read-out: Percent Competition
T3 construct: purchased Ambit Biosciences (KINOMEscan)
From the text: as §1

PIK3CB = target: T4, PIK3CB (Homo sapiens, UniProt P42338); conditions: compound concentration 10 uM, read-out: Percent Competition
T4 construct: purchased Ambit Biosciences (KINOMEscan)
From the text: as §1

MERTK = target: T5, MERTK (Homo sapiens, UniProt Q12866); conditions: compound concentration 10 uM, read-out: Percent Competition
T5 construct: purchased Ambit Biosciences (KINOMEscan)
From the text: as §1

BMPR1A = target: T6, BMPR1A (Homo sapiens, UniProt P36894); conditions: compound concentration 10 uM, read-out: Percent Competition
T6 construct: purchased Ambit Biosciences (KINOMEscan)
From the text: as §1

AKT2 = target: T7, AKT2 (Homo sapiens, UniProt P31751); conditions: compound concentration 10 uM, read-out: Percent Competition
T7 construct: purchased Ambit Biosciences (KINOMEscan)
From the text: as §1

TIE2 = target: T8, TIE2 (Homo sapiens, UniProt Q02763); conditions: compound concentration 10 uM, read-out: Percent Competition
T8 construct: purchased Ambit Biosciences (KINOMEscan)
From the text: as §1

PIP5K2B = target: T9, PIP5K2B (Homo sapiens, UniProt P78356); conditions: compound concentration 10 uM, read-out: Percent Competition
T9 construct: purchased Ambit Biosciences (KINOMEscan)
From the text: as §1

EPHB1 = target: T10, EPHB1 (Homo sapiens, UniProt P54762); conditions: compound concentration 10 uM, read-out: Percent Competition
T10 construct: purchased Ambit Biosciences (KINOMEscan)
From the text: as §1

ULK1 = target: T11, ULK1 (Homo sapiens, UniProt O75385); conditions: compound concentration 10 uM
T11 construct: purchased Ambit Biosciences (KINOMEscan)
From the text: as §1

WEE2 = target: T12, WEE2 (Homo sapiens, UniProt P0C1S8); conditions: compound concentration 10 uM, read-out: Percent Competition
T12 construct: purchased Ambit Biosciences (KINOMEscan)
From the text: as §1

AMPK-alpha1 = target: T13, AMPK-alpha1 (Homo sapiens, UniProt Q13131); conditions: compound concentration 10 uM, read-out: Percent Competition
T13 construct: purchased Ambit Biosciences (KINOMEscan)
From the text: as §1

CHEK1 = target: T14, CHEK1 (Homo sapiens, UniProt O14757); conditions: compound concentration 10 uM
T14 construct: purchased Ambit Biosciences (KINOMEscan)
From the text: as §1

DCAMKL3 = target: T15, DCAMKL3 (Homo sapiens, UniProt Q9C098); conditions: compound concentration 10 uM, read-out: Percent Competition
T15 construct: purchased Ambit Biosciences (KINOMEscan)
From the text: as §1

ULK3 = target: T16, ULK3 (Homo sapiens, UniProt Q6PHR2); conditions: compound concentration 10 uM
T16 construct: purchased Ambit Biosciences (KINOMEscan)
From the text: as §1

SIK2 = target: T17, SIK2 (Homo sapiens, UniProt Q9H0K1); conditions: compound concentration 10 uM, read-out: Percent Competition
T17 construct: purchased Ambit Biosciences (KINOMEscan)
From the text: as §1

[1] = target: T18, RPS6KA4(Kin.Dom.1-N-terminal) (Homo sapiens, UniProt O75676); conditions: compound concentration 10 uM, read-out: Percent Competition
T18 construct: RPS6KA4(Kin.Dom.1-N-terminal); purchased Ambit Biosciences (KINOMEscan)
From the text: as §1

MET = target: T19, MET (Homo sapiens, UniProt P08581); conditions: compound concentration 10 uM
T19 construct: purchased Ambit Biosciences (KINOMEscan)
From the text: as §1

TLK2 = target: T20, TLK2 (Homo sapiens, UniProt Q86UE8); conditions: compound concentration 10 uM, read-out: Percent Competition
T20 construct: purchased Ambit Biosciences (KINOMEscan)
From the text: as §1

ERK5 = target: T21, ERK5 (Homo sapiens, UniProt Q13164); conditions: compound concentration 10 uM, read-out: Percent Competition
T21 construct: purchased Ambit Biosciences (KINOMEscan)
From the text: as §1

STK33 = target: T22, STK33 (Homo sapiens, UniProt Q9BYT3); conditions: compound concentration 10 uM, read-out: Percent Competition
T22 construct: purchased Ambit Biosciences (KINOMEscan)
From the text: as §1

CSNK2A1 = target: T23, CSNK2A1 (Homo sapiens, UniProt P68400); conditions: compound concentration 10 uM, read-out: Percent Competition
T23 construct: purchased Ambit Biosciences (KINOMEscan)
From the text: as §1

DAPK3 = target: T24, DAPK3 (Homo sapiens, UniProt O43293); conditions: compound concentration 10 uM, read-out: Percent Competition
T24 construct: purchased Ambit Biosciences (KINOMEscan)
From the text: as §1

RIOK1 = target: T25, RIOK1 (Homo sapiens, UniProt Q9BRS2); conditions: compound concentration 10 uM, read-out: Percent Competition
T25 construct: purchased Ambit Biosciences (KINOMEscan)
From the text: as §1

ABL1(M351T) = target: T26, ABL1(M351T) (Homo sapiens, UniProt P00519, M351T); conditions: compound concentration 10 uM, read-out: Percent Competition
T26 construct: purchased Ambit Biosciences (KINOMEscan)
From the text: as §1

LOK = target: T27, LOK (Homo sapiens, UniProt O94804); conditions: compound concentration 10 uM
T27 construct: purchased Ambit Biosciences (KINOMEscan)
From the text: as §1

GCN2(Kin.Dom.2,S808G) = target: T28, GCN2(Kin.Dom.2,S808G) (Homo sapiens, UniProt Q9P2K8, S808G); conditions: compound concentration 10 uM, read-out: Percent Competition
T28 construct: GCN2(Kin.Dom.2,S808G); purchased Ambit Biosciences (KINOMEscan)
From the text: as §1

ANKK1 = target: T29, ANKK1 (Homo sapiens, UniProt Q8NFD2); conditions: compound concentration 10 uM, read-out: Percent Competition
T29 construct: purchased Ambit Biosciences (KINOMEscan)
From the text: as §1

SRPK1 = target: T30, SRPK1 (Homo sapiens, UniProt Q96SB4); conditions: compound concentration 10 uM, read-out: Percent Competition
T30 construct: purchased Ambit Biosciences (KINOMEscan)
From the text: as §1

PIK3CA = target: T31, PIK3CA (Homo sapiens, UniProt P42336); conditions: compound concentration 10 uM, read-out: Percent Competition
T31 construct: purchased Ambit Biosciences (KINOMEscan)
From the text: as §1

RIPK1 = target: T32, RIPK1 (Homo sapiens, UniProt Q13546); conditions: compound concentration 10 uM, read-out: Percent Competition
T32 construct: purchased Ambit Biosciences (KINOMEscan)
From the text: as §1

ZAP70 = target: T33, ZAP70 (Homo sapiens, UniProt P43403); conditions: compound concentration 10 uM, read-out: Percent Competition
T33 construct: purchased Ambit Biosciences (KINOMEscan)
From the text: as §1

PAK3 = target: T34, PAK3 (Homo sapiens, UniProt O75914); conditions: compound concentration 10 uM, read-out: Percent Competition
T34 construct: purchased Ambit Biosciences (KINOMEscan)
From the text: as §1

ERBB2 = target: T35, ERBB2 (Homo sapiens, UniProt P04626); conditions: compound concentration 10 uM, read-out: Percent Competition
T35 construct: purchased Ambit Biosciences (KINOMEscan)
From the text: as §1

ABL1(T315I) = target: T36, ABL1(T315I) (Homo sapiens, UniProt P00519, T315I); conditions: compound concentration 10 uM, read-out: Percent Competition
T36 construct: purchased Ambit Biosciences (KINOMEscan)
From the text: as §1

[2] = target: T37, RPS6KA3(Kin.Dom.1-N-terminal) (Homo sapiens, UniProt P51812); conditions: compound concentration 10 uM, read-out: Percent Competition
T37 construct: RPS6KA3(Kin.Dom.1-N-terminal); purchased Ambit Biosciences (KINOMEscan)
From the text: as §1

PRKX = target: T38, PRKX (Homo sapiens, UniProt P51817); conditions: compound concentration 10 uM, read-out: Percent Competition
T38 construct: purchased Ambit Biosciences (KINOMEscan)
From the text: as §1

TLK1 = target: T39, TLK1 (Homo sapiens, UniProt Q9UKI8); conditions: compound concentration 10 uM, read-out: Percent Competition
T39 construct: purchased Ambit Biosciences (KINOMEscan)
From the text: as §1

BLK = target: T40, BLK (Homo sapiens, UniProt P51451); conditions: compound concentration 10 uM, read-out: Percent Competition
T40 construct: purchased Ambit Biosciences (KINOMEscan)
From the text: as §1

T13 sequence (Q13131 whole entry): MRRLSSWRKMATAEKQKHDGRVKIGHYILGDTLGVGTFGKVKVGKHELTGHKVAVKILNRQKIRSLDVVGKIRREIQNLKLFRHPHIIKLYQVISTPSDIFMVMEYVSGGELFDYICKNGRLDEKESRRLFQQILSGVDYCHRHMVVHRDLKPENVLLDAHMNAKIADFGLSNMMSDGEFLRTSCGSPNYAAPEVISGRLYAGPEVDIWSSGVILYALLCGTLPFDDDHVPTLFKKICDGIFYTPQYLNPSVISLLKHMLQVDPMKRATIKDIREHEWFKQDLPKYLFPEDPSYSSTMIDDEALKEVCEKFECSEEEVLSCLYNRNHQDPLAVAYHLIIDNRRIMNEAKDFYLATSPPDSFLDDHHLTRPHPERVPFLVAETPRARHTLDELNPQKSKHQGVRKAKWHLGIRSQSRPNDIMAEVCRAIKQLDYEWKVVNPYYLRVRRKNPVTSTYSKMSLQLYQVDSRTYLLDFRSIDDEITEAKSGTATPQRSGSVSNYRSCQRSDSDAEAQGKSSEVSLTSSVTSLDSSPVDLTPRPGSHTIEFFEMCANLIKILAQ
T27 sequence (O94804 whole entry): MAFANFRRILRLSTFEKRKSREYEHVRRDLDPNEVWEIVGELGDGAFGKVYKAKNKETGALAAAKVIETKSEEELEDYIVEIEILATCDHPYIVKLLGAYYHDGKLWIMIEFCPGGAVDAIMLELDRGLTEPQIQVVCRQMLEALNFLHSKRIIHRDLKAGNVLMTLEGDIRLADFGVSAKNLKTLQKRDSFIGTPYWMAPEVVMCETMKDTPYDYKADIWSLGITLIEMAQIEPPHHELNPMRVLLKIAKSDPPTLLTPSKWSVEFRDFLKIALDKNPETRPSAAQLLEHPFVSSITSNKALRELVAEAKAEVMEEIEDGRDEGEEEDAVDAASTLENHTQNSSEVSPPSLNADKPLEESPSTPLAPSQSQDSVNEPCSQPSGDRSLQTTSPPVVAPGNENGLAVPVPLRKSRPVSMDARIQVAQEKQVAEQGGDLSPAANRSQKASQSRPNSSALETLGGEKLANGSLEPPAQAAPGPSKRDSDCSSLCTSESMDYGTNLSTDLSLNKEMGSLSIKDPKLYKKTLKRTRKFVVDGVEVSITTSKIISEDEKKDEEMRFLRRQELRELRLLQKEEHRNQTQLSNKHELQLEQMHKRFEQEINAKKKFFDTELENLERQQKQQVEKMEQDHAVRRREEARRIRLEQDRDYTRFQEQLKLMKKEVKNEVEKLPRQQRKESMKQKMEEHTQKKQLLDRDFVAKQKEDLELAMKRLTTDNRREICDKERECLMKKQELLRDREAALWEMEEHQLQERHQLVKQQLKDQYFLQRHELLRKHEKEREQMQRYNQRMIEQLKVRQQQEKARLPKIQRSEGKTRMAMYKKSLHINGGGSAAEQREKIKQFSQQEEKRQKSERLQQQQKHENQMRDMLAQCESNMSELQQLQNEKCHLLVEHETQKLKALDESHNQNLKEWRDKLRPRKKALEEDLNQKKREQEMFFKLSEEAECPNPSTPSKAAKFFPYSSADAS
T2 sequence (Q13188 whole entry): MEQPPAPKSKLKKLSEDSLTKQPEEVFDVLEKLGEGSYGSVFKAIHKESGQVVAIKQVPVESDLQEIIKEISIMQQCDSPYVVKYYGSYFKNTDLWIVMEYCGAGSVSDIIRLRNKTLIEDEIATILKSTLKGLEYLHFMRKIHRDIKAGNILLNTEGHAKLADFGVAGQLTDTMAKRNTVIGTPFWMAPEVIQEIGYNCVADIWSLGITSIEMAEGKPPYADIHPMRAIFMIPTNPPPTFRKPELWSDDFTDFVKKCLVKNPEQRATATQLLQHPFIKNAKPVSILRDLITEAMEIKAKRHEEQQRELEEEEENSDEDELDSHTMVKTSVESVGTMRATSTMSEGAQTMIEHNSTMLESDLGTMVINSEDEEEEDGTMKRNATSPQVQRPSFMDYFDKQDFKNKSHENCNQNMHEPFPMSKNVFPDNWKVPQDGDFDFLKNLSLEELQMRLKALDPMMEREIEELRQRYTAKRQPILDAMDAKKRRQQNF
T1 sequence (P07333 20-972): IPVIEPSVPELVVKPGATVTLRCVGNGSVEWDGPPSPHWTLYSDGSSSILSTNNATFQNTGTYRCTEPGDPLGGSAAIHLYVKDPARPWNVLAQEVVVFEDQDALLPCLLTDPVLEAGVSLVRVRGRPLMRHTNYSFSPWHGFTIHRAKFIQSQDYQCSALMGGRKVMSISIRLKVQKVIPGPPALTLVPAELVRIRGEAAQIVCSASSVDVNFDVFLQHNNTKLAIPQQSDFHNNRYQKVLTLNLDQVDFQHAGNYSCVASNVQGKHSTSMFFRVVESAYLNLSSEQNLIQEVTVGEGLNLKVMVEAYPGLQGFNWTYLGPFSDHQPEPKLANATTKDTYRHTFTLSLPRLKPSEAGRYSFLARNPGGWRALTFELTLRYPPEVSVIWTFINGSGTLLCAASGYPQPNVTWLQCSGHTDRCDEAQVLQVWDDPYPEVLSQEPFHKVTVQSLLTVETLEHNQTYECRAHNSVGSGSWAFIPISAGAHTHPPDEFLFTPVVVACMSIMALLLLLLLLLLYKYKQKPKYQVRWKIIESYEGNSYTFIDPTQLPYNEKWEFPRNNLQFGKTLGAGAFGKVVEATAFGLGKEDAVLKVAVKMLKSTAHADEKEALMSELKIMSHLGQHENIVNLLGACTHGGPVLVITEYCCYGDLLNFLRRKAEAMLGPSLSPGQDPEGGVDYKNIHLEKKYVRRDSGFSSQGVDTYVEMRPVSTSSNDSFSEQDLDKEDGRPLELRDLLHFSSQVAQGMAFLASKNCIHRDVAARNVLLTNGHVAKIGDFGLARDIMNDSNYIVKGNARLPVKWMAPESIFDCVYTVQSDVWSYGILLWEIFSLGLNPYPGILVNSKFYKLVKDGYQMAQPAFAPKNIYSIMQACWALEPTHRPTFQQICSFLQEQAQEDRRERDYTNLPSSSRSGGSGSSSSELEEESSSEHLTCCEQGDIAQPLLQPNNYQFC
T28 sequence (Q9P2K8 590-1001 S808G limits assumed): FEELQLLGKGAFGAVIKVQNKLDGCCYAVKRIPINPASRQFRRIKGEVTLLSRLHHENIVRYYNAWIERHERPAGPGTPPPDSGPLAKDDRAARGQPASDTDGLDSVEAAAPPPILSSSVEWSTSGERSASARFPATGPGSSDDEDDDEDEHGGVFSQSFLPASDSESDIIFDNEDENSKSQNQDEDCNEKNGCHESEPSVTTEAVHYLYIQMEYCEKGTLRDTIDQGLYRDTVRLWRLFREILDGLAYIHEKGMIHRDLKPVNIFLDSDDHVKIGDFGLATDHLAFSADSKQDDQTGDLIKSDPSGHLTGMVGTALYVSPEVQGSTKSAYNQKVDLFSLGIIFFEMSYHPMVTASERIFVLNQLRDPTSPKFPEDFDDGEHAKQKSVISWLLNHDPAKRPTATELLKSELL
T9 sequence (P78356 whole entry): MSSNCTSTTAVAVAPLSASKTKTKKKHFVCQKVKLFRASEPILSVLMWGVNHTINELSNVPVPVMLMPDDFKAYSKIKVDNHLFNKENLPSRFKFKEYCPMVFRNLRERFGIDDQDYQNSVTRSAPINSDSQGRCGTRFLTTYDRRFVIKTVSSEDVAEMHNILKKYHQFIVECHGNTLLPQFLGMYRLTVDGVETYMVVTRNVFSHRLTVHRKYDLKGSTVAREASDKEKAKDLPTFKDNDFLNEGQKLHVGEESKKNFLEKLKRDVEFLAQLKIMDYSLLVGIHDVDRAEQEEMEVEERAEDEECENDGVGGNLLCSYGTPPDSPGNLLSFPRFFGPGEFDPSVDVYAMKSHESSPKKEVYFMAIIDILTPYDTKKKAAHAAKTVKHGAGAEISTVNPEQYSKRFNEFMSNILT
T21 sequence (Q13164 whole entry): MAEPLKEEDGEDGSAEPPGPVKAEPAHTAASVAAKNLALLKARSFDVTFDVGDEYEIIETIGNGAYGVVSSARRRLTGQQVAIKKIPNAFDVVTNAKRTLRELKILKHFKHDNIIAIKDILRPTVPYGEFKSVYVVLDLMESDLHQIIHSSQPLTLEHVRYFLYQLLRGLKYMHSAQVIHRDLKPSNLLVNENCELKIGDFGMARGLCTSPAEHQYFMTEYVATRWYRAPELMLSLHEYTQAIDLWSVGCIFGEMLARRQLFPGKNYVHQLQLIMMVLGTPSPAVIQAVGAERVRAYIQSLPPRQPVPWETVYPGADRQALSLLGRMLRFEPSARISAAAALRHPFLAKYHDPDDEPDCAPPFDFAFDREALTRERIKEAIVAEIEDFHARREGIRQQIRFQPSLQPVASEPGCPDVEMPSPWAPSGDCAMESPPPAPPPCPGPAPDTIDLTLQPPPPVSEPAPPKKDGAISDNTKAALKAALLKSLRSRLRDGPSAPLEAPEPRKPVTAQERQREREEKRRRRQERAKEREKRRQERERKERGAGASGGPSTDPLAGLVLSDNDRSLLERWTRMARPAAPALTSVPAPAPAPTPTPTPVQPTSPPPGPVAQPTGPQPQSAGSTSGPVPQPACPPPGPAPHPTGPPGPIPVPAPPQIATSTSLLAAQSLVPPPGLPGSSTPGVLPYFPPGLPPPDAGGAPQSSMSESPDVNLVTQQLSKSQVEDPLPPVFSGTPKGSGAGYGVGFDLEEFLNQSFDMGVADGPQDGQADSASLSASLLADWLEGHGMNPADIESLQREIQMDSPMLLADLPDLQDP
T18 sequence (O75676 1-371 limits assumed): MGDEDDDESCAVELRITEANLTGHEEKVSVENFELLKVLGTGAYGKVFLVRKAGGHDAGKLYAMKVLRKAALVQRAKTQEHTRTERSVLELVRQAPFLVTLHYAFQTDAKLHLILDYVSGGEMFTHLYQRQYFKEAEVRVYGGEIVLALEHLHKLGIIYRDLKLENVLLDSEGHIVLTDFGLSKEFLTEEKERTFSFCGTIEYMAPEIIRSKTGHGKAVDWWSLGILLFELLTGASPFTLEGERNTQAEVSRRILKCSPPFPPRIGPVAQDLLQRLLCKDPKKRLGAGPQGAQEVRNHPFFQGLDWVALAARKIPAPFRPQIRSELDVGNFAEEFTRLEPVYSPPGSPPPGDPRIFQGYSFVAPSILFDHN

inhibition at 10 µM (CSF1R): < 50%
inhibition at 10 µM (MST2): < 50%
inhibition at 10 µM (AXL): < 50%
inhibition at 10 µM (PIK3CB): < 50%
inhibition at 10 µM (MERTK): < 50%
inhibition at 10 µM (BMPR1A): < 50%
inhibition at 10 µM (AKT2): < 50%
inhibition at 10 µM (TIE2): < 50%
inhibition at 10 µM (PIP5K2B): < 50%
inhibition at 10 µM (EPHB1): < 50%
Percent Competition (ULK1): <50%
inhibition at 10 µM (WEE2): < 50%
inhibition at 10 µM (AMPK-alpha1): < 50%
Percent Competition (CHEK1): <50%
inhibition at 10 µM (DCAMKL3): < 50%
Percent Competition (ULK3): <50%
inhibition at 10 µM (SIK2): < 50%
inhibition at 10 µM [1]: < 50%
Percent Competition (MET): <50%
inhibition at 10 µM (TLK2): < 50%
inhibition at 10 µM (ERK5): < 50%
inhibition at 10 µM (STK33): < 50%
inhibition at 10 µM (CSNK2A1): < 50%
inhibition at 10 µM (DAPK3): < 50%
inhibition at 10 µM (RIOK1): < 50%
inhibition at 10 µM (ABL1(M351T)): < 50%
Percent Competition (LOK): <50%
inhibition at 10 µM (GCN2(Kin.Dom.2,S808G)): < 50%
inhibition at 10 µM (ANKK1): < 50%
inhibition at 10 µM (SRPK1): < 50%
inhibition at 10 µM (PIK3CA): < 50%
inhibition at 10 µM (RIPK1): < 50%
inhibition at 10 µM (ZAP70): < 50%
inhibition at 10 µM (PAK3): < 50%
inhibition at 10 µM (ERBB2): < 50%
inhibition at 10 µM (ABL1(T315I)): < 50%
inhibition at 10 µM [2]: < 50%
inhibition at 10 µM (PRKX): < 50%
inhibition at 10 µM (TLK1): < 50%
inhibition at 10 µM (BLK): < 50%
Structure (SMILES): Fc1ccc(-c2c(-c3ccncc3)[nH]c3nccnc23)cc1 [RO1155697-000-005]
